In patent publication US20130266557A1, “METHODS FOR TREATMENT OF A SARCOMA USING AN EPIMETABOLIC SHIFTER (COENZYME Q10)” (priority 2009, published 2013):
Entries after “also recorded” stand apart in the source; their conditions may differ.

Test system: NCIES0808 cells
Experiment: Two-dimensional gel analysis with MS identification
Format: cell-based, human
Protocol: NCIES0808 cells were plated in T25 flasks in experimental conditions similar to those described in the PCR array section. At the end of the treatment time, cells were trypsinized as described in the PCR array section and washed twice in ice cold TBS and snap frozen in liquid nitrogen. Further processing for Western blots was carried out at UMass.
Before isoelectric focusing (IEF), samples were solubilized in 40 mM Tris, 7 M urea, 2 M thiourea, and 1% C7 zwitterionic detergent, reduced with tributylphosphine, and alkylated with 10 mM acrylamide for 90 min at room temperature. After the sample was run through a 10-kDa cutoff Amicon Ultra device with at least 3 volumes of the resuspension buffer, consisting of 7 M urea, 2 M thiourea, and 2% CHAPS to reduce the conductivity of the sample. One hundred micrograms of protein were subjected to IEF on 11-cm pH 3 to 10, pH 4 to 7 or pH 6 to 11 immobilized pH gradient strips (GE, Amersham, USA) to 100,000 volts hour. After IEF, immobilized pH gradient strips were equilibrated in 6 M urea, 2% SDS, 50 mM Tris-acetate buffer, pH 7.0, and 0.01% bromphenol blue and subjected to SDS-polyacrylamide gel electrophoresis on 8 to 16% Tris-HCl Precast Gel, 1 mm (Bio-Rad, USA). The gels were run in duplicate. They were fixed, stained in SYPRO Ruby, 80 mL/gel (Invitrogen, USA) and imaged on Fuji FLA-5100 laser scanner.
Analysis of all gel images was performed using Progenesis Discovery and Pro (Nonlinear Dynamics Inc., Newcastle upon Tyne, UK). After spot detection, matching, background subtraction, normalization, and filtering, data for SYPRO Ruby gel images was exported. […] Manual annotation of each statistically significant spots was performed to assure accurate detection.
Tryptic peptides extracted from respective gel plugs were dried down to a 10 ul volume and acidified with 1-2 ul of 1% TFA. Samples were loaded on an uC18 Zip Tip (Millipore, Corp) after pre-equilibration in 0.1% TFA. After washing with 2×10 ul aliquots of 0.1% TFA, samples were deposited directly onto the MALDI sample target using 1 ul of Matrix solution 15 mg/ml of 2,5 Dihydroxybenzoic Acid (MassPrep DHB, Waters Corp.) in 50:50 Acetonitrile: 0.1% TFA. Samples were allowed to air dry prior to insertion into the mass spectrometer. Analysis were performed on a Kratos Axima QIT (Shimadzu Instruments) matrix-assisted-laser desorption/ionization (MALDI) mass spectrometer. Peptides were analyzed in positive ion mode in mid mass range (700-3000 Da). The instrument was externally calibrated with Angiotensin II (1046.54), P14R (1533.86) and ACTH (18-39) 2465.20 Da. Precursors were selected based on signal intensity at a mass resolution width of 250 for CID fragmentation using Argon as the collision gas. Database searches were performed in house with Mascot (Matrix Sciences, Ltd.) using the Peptide Mass Fingerprint program for MS data and the MS/MS Ion Search program for CID data. All identifications were confirmed or established with CID (MS/MS) data.
NCIES0808 cells treated for 3, 6 and 24 hours were subjected to 2-D gel electrophoreses and were analyzed to identify protein-level changes relative to the control media samples. A comparative analysis of spots across multiple duplicated gels was performed, comparing the “control media sample” against all of the treated samples at both the 50 uM and 100 uM doses. The analysis included the identification of spot changes over the time course due to an increase, decrease, or post-translational modification.

[1] = 24 hours, 50 uM Q10, − = down, 1 = no change
[2] = 24 hours, 100 uM Q10, − = down, 1 = no change

Substance: Coenzyme Q10 [CoQ10]
- Spot 372, lamin B1: modulation vs control media [1]: 1
- Spot 387, SMT 3 suppressor of mif two 3 homolog 2: modulation vs control media [1]: 1
- Spot 388, heat shock protein 27 kD: modulation vs control media [1]: 1.1
- Spot 396, hnRNP C1/C2: modulation vs control media [1]: −1.4
- Spot 436, eukaryotc translation elongation factor 1 beta 2: modulation vs control media [1]: 1
- Spot 490, Similar to HSPC-300: modulation vs control media [1]: −1.2
- Spot 506, heat shock protein 27 kD: modulation vs control media [1]: −1.2
- Spot 511, eukaryotic translation elongation factor 1 delta: modulation vs control media [1]: 1
- Spot 524, eukaryotic translation elongation factor 1 delta: modulation vs control media [1]: 1
- Spot 532, putative c-myc-responsive isoform 1: modulation vs control media [1]: 1
- Spot 557, lamin B1: modulation vs control media [1]: 1
- Spot 575, ER lipid raft associated 2 isoform 1; beta actin: modulation vs control media [1]: 1.1
- Spot 583, Dismutase Cu/Zn Superoxide: modulation vs control media [1]: 1.1
- Spot 622, DNA directed DNA polymerase epislon 3; (canopy 2 homolog): modulation vs control media [1]: −1.1
- Spot 646, signal sequence receptor 1 delta: modulation vs control media [1]: 1
- Spot 16, alpha 2-HS glycoprotein (Bos Taurus, cow): modulation vs control media [2]: 5.9
- Spot 130, ribosomal proten P2; histone H2A: modulation vs control media [2]: −4.2
- Spot 180, beta actin: modulation vs control media [2]: 3
- Spot 234, hnRNP C1/C2: modulation vs control media [2]: −2.6
- Spot 244, heat shock protein 70 kD: modulation vs control media [2]: 1.7
- Spot 275, microtubule associated protein: modulation vs control media [2]: −1.8
- Spot 311, beta tubulin: modulation vs control media [2]: 2.6
- Spot 314, proteasome alpha 3: modulation vs control media [2]: −2.2
- Spot 363, ATP dependent helicase II: modulation vs control media [2]: 2.1
- Spot 369, eukaryotic translation elongation factor 1 delta: modulation vs control media [2]: −2
- Spot 372, lamin B1: modulation vs control media [2]: −2.1
- Spot 387, SMT 3 suppressor of mif two 3 homolog 2: modulation vs control media [2]: −1.95
- Spot 388, heat shock protein 27 kD: modulation vs control media [2]: −1.7
- Spot 396, hnRNP C1/C2: modulation vs control media [2]: −2
- Spot 436, eukaryotc translation elongation factor 1 beta 2: modulation vs control media [2]: −1.9
- Spot 490, Similar to HSPC-300: modulation vs control media [2]: 1.5
- Spot 506, heat shock protein 27 kD: modulation vs control media [2]: −1.9
- Spot 511, eukaryotic translation elongation factor 1 delta: modulation vs control media [2]: −1.6
- Spot 524, eukaryotic translation elongation factor 1 delta: modulation vs control media [2]: −1.7
- Spot 532, putative c-myc-responsive isoform 1: modulation vs control media [2]: 1.4
- Spot 557, lamin B1: modulation vs control media [2]: −1.6
- Spot 575, ER lipid raft associated 2 isoform 1; beta actin: modulation vs control media [2]: 1.6
- Spot 583, Dismutase Cu/Zn Superoxide: modulation vs control media [2]: −1.3
- Spot 622, DNA directed DNA polymerase epislon 3; (canopy 2 homolog): modulation vs control media [2]: −1.6
- Spot 646, signal sequence receptor 1 delta: modulation vs control media [2]: 1.5
- Expression of proteosome subunits PSMA3, PSMB3, PSMB4 and ubiquitin enzymes (ubiquilin) (Ewing Sarcoma ES0808 cell line treated with CoQ10): sustained increases
- Ku70 (ATP dependent helicase II) level (Ewing Sarcoma ES0808 cell lines treated with CoQ10): decrease
- Proteins with observed increase in expression (value = protein), discussion A (Ewing Sarcoma cell line treated with CoQ10): ribosomal proteins (RPLP2); also recorded: eukaryotic translation initiation factors (EIF3G, EIF4A2); also recorded: eukaryotic translation elongation factors (EEF1B2, EEF1D); also recorded: heat shock proteins (HSP27, HSP60, HSP70); also recorded: dyenin
- hnRNP C1/C2 expression (persisted up to 24 hours): down-regulation
